# Measurements reported in PMC6150295, “Synthesis and Biological Evaluation of 2H-Indazole Derivatives: Towards Antimicrobial and Anti-Inflammatory Dual Agents” (Molecules : A Journal of Synthetic Chemistry and Natural …, 2017).
# Like-named read-outs stand apart in the source and are kept apart here.
# Key:
# [1] = target: T1, human recombinant cyclooxygenase-2 (Homo sapiens, UniProt P35354); assay: COX inhibitor screening assay (Cayman kit); type: biochemical; details: tested at 10 µM
# T1 construct: purchased Cayman Chemical 560131
# T1 sequence (P35354 18-604): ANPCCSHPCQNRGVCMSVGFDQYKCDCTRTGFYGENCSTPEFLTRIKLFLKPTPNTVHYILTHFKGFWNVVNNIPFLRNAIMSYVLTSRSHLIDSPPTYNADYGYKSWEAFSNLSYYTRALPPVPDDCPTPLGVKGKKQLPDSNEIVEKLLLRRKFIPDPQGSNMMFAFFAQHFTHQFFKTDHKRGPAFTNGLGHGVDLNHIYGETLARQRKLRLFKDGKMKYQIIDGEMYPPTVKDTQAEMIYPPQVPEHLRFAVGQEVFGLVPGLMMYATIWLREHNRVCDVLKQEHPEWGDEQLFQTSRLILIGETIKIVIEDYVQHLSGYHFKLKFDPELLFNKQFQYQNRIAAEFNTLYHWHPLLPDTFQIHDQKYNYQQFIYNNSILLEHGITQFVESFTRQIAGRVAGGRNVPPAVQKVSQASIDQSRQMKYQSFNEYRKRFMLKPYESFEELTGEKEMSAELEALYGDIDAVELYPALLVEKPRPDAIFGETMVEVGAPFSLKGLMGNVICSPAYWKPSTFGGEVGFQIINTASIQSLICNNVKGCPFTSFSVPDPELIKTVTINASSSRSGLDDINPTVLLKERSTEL
# Procedure: Additionally, molecular docking studies using AutoDock Vina software (TSRI, La Jolla, CA, USA) were performed to aid in the interpretation of the experimental results. […] Nevertheless, these compounds represent an interesting starting point towards the design of new antiparasitic compounds with an additional COX-2 inhibitory property.
# Assays were carried out by duplicate following the instructions provided by the manufacturer.
# [2] = tested on: Trichomonas vaginalis strain GT3; assay: In vitro antiprotozoal assay (trophozoite subculture method); type: cell-based; details: for IC50: Trichomonas vaginalis, read-out: IC50 (µM) T. vaginalis
# Procedure: (§1) The in vitro antiprotozoal assays against E. histolytica, G. intestinalis, and T. vaginalis of the 2-phenyl-2H-indazole and 2,3-diphenyl-2H-indazole derivatives were carried out following the method previously described. Metronidazole (MTZ) and albendazole (ABZ) were used as reference drugs. […] Similarly, compound 7, having a phenyl at position 2, has good activity against the three protozoa, ranking third in activity for T. vaginalis and forth against G. intestinalis and E. histolytica. […] These derivatives had groups H, COOCH3, Cl, and SO2CH3 at positions 2 and 3, substituents that induced the best response in 2-phenyl-2H-indazole derivatives. In addition, carboxylic acids 20 and 25 were of interest for comparative purposes with ester derivatives.
# (§2) Trichomonas vaginalis strain GT3, Giardia intestinalis isolate IMSS:0981:1, and Entamoeba histolytica strain HM1-IMSS were used. Trophozoites of G. intestinalis were maintained in a TYI-S-33 medium supplemented with 10% calf serum and bovine bile. E. histolytica and T. vaginalis trophozoites were maintained in TYI-S-33 medium supplemented with 10% bovine serum. Briefly, 5 × 10^4 trophozoites of G. intestinalis or T. vaginalis, or 6 × 10^3 trophozoites of E. histolytica were incubated for 48 h at 37 °C with different concentrations of the compound to be tested, each added as solutions in DMSO. As a negative control, parasite cultures received an equivalent amount of DMSO only, while albendazole and metronidazole were included as positive controls. At the end of the treatment period, the cells were washed and subcultured for another 48 h in a fresh medium to which no drug was added. […] Experiments were carried out in triplicate and repeated at least twice.
# [3] = tested on: Giardia intestinalis isolate IMSS:0981:1; assay: as above; type: cell-based; details: for IC50: Giardia duodenalis, read-out: IC50 (µM) G. intestinalis
# Procedure: as §1, §2
# [4] = tested on: Entamoeba histolytica strain HM1-IMSS; assay: as above; type: cell-based; details: for IC50: Entamoeba histolytica, read-out: IC50 (µM) E. histolytica; for improvement in potency against E. histolytica relative to the analog: 17 compared with 8, 20 compared to 13, 26 compared to 21
# Procedure: as §1, §2
# Candida albicans = assay: Disk diffusion susceptibility test; type: cell-based; details: for Inhibition (positive / none) C. albicans: 5 mg per disc, 37 °C, 24 h
# [5] = tested on: Escherichia coli strain 042 (EAEC); assay: Disk diffusion susceptibility test; type: cell-based; details: 5 mg per disc, 37 °C, 24 h
# [6] = tested on: Escherichia coli strain EDL933 (EHEC); assay: Disk diffusion susceptibility test; type: cell-based; details: for Inhibition (positive / none) E. coli 933: 5 mg per disc, 37 °C, 24 h; for zone of inhibition at 5000 µg/disc: Escherichia coli, read-out: Zone of inhibition at 5 mg per disc (mm) E. coli 933
# [7] = tested on: Salmonella enterica serovar Typhi; assay: Disk diffusion susceptibility test; type: cell-based
# Candida glabrata = assay: Disk diffusion susceptibility test; type: cell-based; details: for Inhibition (positive / none) C. glabrata: 5 mg per disc, 37 °C, 24 h; for zone of inhibition at 5000 µg/disc: Nakaseomyces glabratus, read-out: Zone of inhibition at 5 mg per disc (mm) C. glabrata
# [8] = GT3, trophozoites, 48 h with compound then 48 h subculture without drug
# [9] = trophozoites, 48 h with compound then 48 h subculture without drug
# [10] = 16 relative to 7, 20 compared to 13
SMILES,"IC50 [2, 8]","IC50 [3, 9]","IC50 [4, 9]",Inhibition (positive / none) C. albicans (Candida albicans),Inhibition (positive / none) E. coli 042 [5],melting point,Inhibition (positive / none) E. coli 933 [6],"Inhibition (positive / none) S. Typhi ([7]; 5 mg per disc, 37 °C, 24 h)",Inhibition (positive / none) C. glabrata (Candida glabrata),further results
"CS(=O)(=O)c1ccc(-n2nc3ccccc3c2-c2ccccc2)cc1 [Compound 21, 2-(4-(Methylsulfonyl)phenyl)-3-phenyl-2H-indazole]",0.214 ± 0.0101 µM,0.124 ± 0.0122 µM,0.208 ± 0.0061 µM,-,-,101.8 to 102.7 °C,-,-,-,inhibition at 10 µM [1]: 44.5 ± 2.65%
"Clc1ccc(-c2c3ccccc3nn2-c2ccccc2)cc1 [Compound 22, 3-(4-Chlorophenyl)-2-phenyl-2H-indazole]",0.118 ± 0.0046 µM,0.113 ± 0.007 µM,0.0394 µM,-,-,141.1 to 142.8 °C,+,-,+,zone of inhibition at 5000 µg/disc [6]: 1 mm; zone of inhibition at 5000 µg/disc (Candida glabrata): 2 mm
"CSc1ccc(-n2nc3ccccc3c2-c2ccccc2)cc1 [Compound 19, 2-(4-(Methylthio)phenyl)-3-phenyl-2H-indazole]",,,,,,87.7 to 89 °C,,,,
"Cc1ncc([N+](=O)[O-])n1CCO [MTZ, Metronidazole, reference compound]",0.236 ± 0.016 µM,1.23 ± 0.125 µM,0.38 ± 0.146 µM,,,,,,,
"O=C(O)c1ccc(-c2c3ccccc3nn2-c2ccccc2)cc1 [Compound 25, 4-(2-Phenyl-2H-indazol-3-yl) benzoic acid]",0.24 ± 0.0067 µM,0.121 ± 0.009 µM,0.0509 µM,+,-,296.2 to 298.2 °C,+,-,-,"zone of inhibition at 5000 µg/disc (Candida albicans; Candida albicans, read-out: Zone of inhibition at 5 mg per disc (mm) C. albicans): 1 mm; zone of inhibition at 5000 µg/disc [6]: 2 mm"
"Oc1ccc(-n2cc3ccccc3n2)cc1 [Compound 12, 4-(2H-Indazol-2-yl) phenol]",0.157 ± 0.0135 µM,0.119 ± 0.0067 µM,0.0737 ± 0.0101 µM,,,179 to 181 °C,,,,
"CSc1ccc(-c2c3ccccc3nn2-c2ccccc2)cc1 [Compound 24, 3-(4-(Methylthio)phenyl)-2-phenyl-2H-indazole]",,,,,,119.3 to 121.4 °C,,,,
"Clc1ccc(-n2cc3ccccc3n2)cc1 [Compound 8, 2-(4-Chlorophenyl)-2H-indazole]",0.107 ± 0.0031 µM,0.0634 ± 0.0031 µM,0.0415 ± 0.0031 µM,,,143 to 145.5 °C,,,,
"Clc1ccc(-n2nc3ccccc3c2-c2ccccc2)cc1 [Compound 17, 2-(4-Chlorophenyl)-3-phenyl-2H-indazole]",0.103 ± 0.0023 µM,0.0607 ± 0.0023 µM,0.0213 ± 0.0023 µM,-,-,124.4 to 125 °C,+,-,-,improvement in potency against E. histolytica relative to the analog [4]: two-fold; zone of inhibition at 5000 µg/disc [6]: 2 mm
"CC1(C)S[C@@H]2[C@H](NC(=O)[C@H](N)c3ccccc3)C(=O)N2[C@H]1C(=O)O [Ampicillin, ampicillin, reference compound]",,,,,,,,,,"Inhibition (positive / none) S. Typhi ([7]; positive control, ampicillin 25 µg): +"
"CS(=O)(=O)c1ccc(-c2c3ccccc3nn2-c2ccccc2)cc1 [Compound 26, 3-(4-(Methylsulfonyl)phenyl)-2-phenyl-2H-indazole]",0.184 ± 0.0162 µM,0.106 ± 0.0081 µM,0.0459 ± 0.0081 µM,-,-,206.9 to 208.8 °C,-,-,-,inhibition at 10 µM [1]: 41.2 ± 5.93%; improvement in potency against E. histolytica relative to the analog [4]: four-fold
"CS(=O)(=O)c1ccc(-n2cc3ccccc3n2)cc1 [Compound 15, 2-(4-(Methylsulfonyl)phenyl)-2H-indazole]",0.145 ± 0.0026 µM,0.09 ± 0.0234 µM,0.136 ± 0.0052 µM,-,-,200.6 to 201.5 °C,-,-,-,
"O=C(O)c1ccc(-n2nc3ccccc3c2-c2ccccc2)cc1 [Compound 20, 4-(3-Phenyl-2H-indazol-2-yl) benzoic acid]",0.111 ± 0.018 µM,0.0795 ± 0.0045 µM,0.0445 ± 0.0045 µM,-,-,129.2 to 130.1 °C,+,-,+,"improvement in potency against T. vaginalis relative to the analog [2, 10]: three-fold; improvement in potency against G. intestinalis relative to the analog [3, 10]: two-fold; improvement in potency against E. histolytica relative to the analog [4]: two-fold; zone of inhibition at 5000 µg/disc [6]: 2 mm; zone of inhibition at 5000 µg/disc (Candida glabrata): 2 mm"
"COC(=O)c1ccc(-n2cc3ccccc3n2)cc1 [Compound 10, Methyl 4-(2H-indazol-2-yl) benzoate]",0.107 ± 0.0056 µM,0.0634 ± 0.0056 µM,0.0218 ± 0.0028 µM,-,-,185.8 to 186.2 °C,-,-,-,
"O=C(O)c1ccc(-n2cc3ccccc3n2)cc1 [Compound 13, 4-(2H-Indazol-2-yl) benzoic acid]",0.327 ± 0.0178 µM,0.193 ± 0.0119 µM,0.0965 ± 0.0059 µM,,,288.3 to 288.5 °C,,,,
"CSc1ccc(-n2cc3ccccc3n2)cc1 [Compound 11, 2-(4-(Methylthio)phenyl)-2H-indazole]",0.273 ± 0.0147 µM,0.218 ± 0.0088 µM,0.0978 ± 0.0147 µM,,,148.3 to 149.7 °C,,,,
"C[S+]([O-])c1ccc(-n2cc3ccccc3n2)cc1 (centres unmarked) [Compound 14, 2-(4-(Methylsulfinyl)phenyl)-2H-indazole]",0.312 ± 0.011 µM,0.168 ± 0.011 µM,0.0878 ± 0.0083 µM,,,150.1 to 152.7 °C,,,,
"COc1ccc(-n2cc3ccccc3n2)cc1 [Compound 9, 2-(4-Methoxyphenyl)-2H-indazole]",0.372 ± 0.0158 µM,0.205 ± 0.0063 µM,0.154 ± 0.0158 µM,,,133.2 to 135.8 °C,,,,
"CCCSc1ccc2nc(NC(=O)OC)[nH]c2c1 [ABZ, albendazole, reference compound]",,,,,,,,,,"IC50 ([2]; GT3, 48 h): 1.591 ± 0.0113 µM; IC50 ([3]; 48 h): 0.037 ± 0.003 µM; IC50 ([4]; 48 h): 56.5 ± 18.8 µM"
